According to patent US12628822B2, “Plant pathogen defence elicitors” (UNIVERSITÉ LIBRE DE BRUXELLES, priority 2020, dated 2026):

Experiments:
Botrytis cinerea [1] = assay: Protection of tomato plants against Botrytis cinerea (lesion areas); format: in vivo; details: 100 μM; 4 weeks old tomato plants; compared with 100 μM AA9_COS
Description: All experiments were carried on 4 weeks old tomato plants infected with 10^6 spores per millilitres of Botrytis cinerea.
Protection of tomatoes plant against pathogen Botrytis cinerea using several combinations of native cellodextrines, and C1-oxidised, C4-oxidised, and optionally C1- and C4-oxidised (double oxidised) cellodextrines was tested (FIG. 14). In particular, the numerals in FIG. 14 represent mixtures with the following molar proportions of the respective cellodextrins components: • native:C1-oxidised:C4-oxidised • (1) 4:5:1; (2) 6.5:3:0.5; (3) 3:6.5:0.5; (4) 4:3:3; (5) 4:1:5; (6) 0.5:9:0.5; • native:C1-oxidised:C4-oxidised:doubly oxidised • (7) 0.5:4:0.5:5; (8) 2.5:2.5:2.5:2.5.
All experiments were carried on 4 weeks old tomato plants infected with 10^6 spores of Botrytis cinerea. All mixtures were applied having the same molar mass concentration of 100 μM.

Botrytis cinerea [2] = assay: B. cinerea inoculation of Arabidopsis leaves: necrotic lesion area and in planta growth; format: in vivo
Description: For “in planta” growth test of Botrytis cinerea and histochemical assays, five-week-old Col-0 plants were germinated in soil and grown in controlled chamber ( 8/16 h light/dark at 22/20° C. day/night) with a relative humidity equal to 70%. Treatments were performed by applying 40-50 μl of fresh-prepared and filtered solution per leaf.
Botrytis cinerea (strain B05.10, from the INRA/IJPB Institute, Versailles, France) was grown on potato dextrose agar medium at 21° C., with a photoperiod of 12 h light/12 h dark. Leaves were inoculated with two 5-μL droplets of B. cinerea spores (5×10^5 spores ml-1). At the indicated time points, genomic DNA from whole leaves was extracted following the modified protocol of Edwards et al. (A simple and rapid method for the preparation of plant genomic DNA for PCR analysis. Nucl. Acid. Res. 1991, vol. 19, 13491991) and fungal biomass was quantified as described by Gachon and Saindrenan (Real-time PCR monitoring of fungal development in Arabidopsis thaliana infected by Alternaria brassicicola and Botrytis cinerea. Plant Physiol Biochem. 2004, vol. 42, 367-371).
Three days after fungus inoculation, the areas of the developing necrotic lesions were analysed by ImageJ software and the B. cinerea “in planta” growth was evaluated through qPCR. […]

oxidative burst = assay: Oxidative burst detection (DAB, NBT, luminol-based assays); format: in vivo, Arabidopsis thaliana
Description: Hydrogen peroxide was assayed in both in vitro-growth and in soil-growth Arabidopsis plants. In situ detection of H2O2 was performed following the protocol described by Daudi and O'Brien (Detection of Hydrogen Peroxide by DAB Staining in Arabidopsis Leaves. Bio Protoc. 2012, vol. 2(18), e263). Briefly, 5-week-old Col-O plants leaves were droplet-treated (40-50 μl drops per leaf) with indicated compounds. At 24 h after treatment four rosette leaves from five independent plants were gently vacuum-infiltrated (5 min) with 1 mg ml^−1 3,3′-diaminobenzidine (DAB) dissolved in 10 mM sodium phosphate buffer and 0.05% v/v Tween 80. The staining reaction was terminated 5 h after DAB infiltration, and leaves were fixed in ethanol:glycerol:acetic acid 3:1:1. Chlorophyll was removed by several washing steps with 70% v/v ethanol and pictures were token with a stereomicroscope (Discovery V8, Zeiss).
Elicitor-induced H2O2 was also detected by luminol-peroxidase-based assay as described by Albert et al. (Chemiluminescence Detection of the Oxidative Burst in Plant Leaf Pieces. Bio-protocol 2015, vol. 5(6), e1423). Briefly, twenty leaves from 10 independent 4-5-week-old Col-0 plants were cut and incubated in ddH2O overnight. Time course luminescence was evaluated using The SpectraMax iD3 Multi-Mode Microplate Reader (Molecular devices, San Jose, CA, USA) with an integration time per well=1000 ms. […]

callose deposition = assay: Callose staining in Arabidopsis leaves; format: in vivo, Arabidopsis thaliana; details: 6 and 24 h after treatment; 100 μM AA9_COS, 100 μM cellobiose or 1 μM FLG22; 5-week old plants
Description: Callose deposits quantification was performed essentially as described by Zarattini et al. (The bile acid deoxycholate elicits defences in Arabidopsis and reduces bacterial infection. Mol Plant Pathol. 2017, vol. 18(4), 540-554). […] Leaves were examined by stereofluorescence microscopy with an Azio Zoom V.16 (Carl Zeiss Inc., Oberkochen, Germany) and callose spots were quantified using ImageJ software.
Among them, several genes were associated to callose deposition in the cell wall (FIG. 4).

For OC[C@H]1O[C@@H](O[C@H]2[C@H](O)[C@@H](O)[C@H](O)O[C@@H]2CO)[C@H](O)[C@@H](O)[C@@H]1O [Cellobiose, β-D-glucopyranosyl(1→4)D-glucopyranose], the “protection of tomato plants (size of lesion areas)” value (Botrytis cinerea [1]) was “less protective effect”, the “reduction of average sizes of necrotic lesions compared with untreated leaves” value (Botrytis cinerea [2]; 100 μM pre-treatment 24 h before inoculation, three days after inoculation) was “a little protection” and the “reduction of B. cinerea in planta growth (fungus biomass, qPCR)” value (Botrytis cinerea [2]; 100 μM pre-treatment, 3 days after infection) was “slight reduction”. The “short-term extracellular H2O2 production (luminol-based assay)” value (oxidative burst; 14-day old plants) was “no H2O2 production was detected”, the “in situ production of H2O2 and O2− (DAB and NBT assays)” value (oxidative burst; 24 h after treatments, 5-week old plants) was “no measurable production” and the callose accumulation (callose deposition) was “no visible callose spots”.
